According to publication PMC6977461 (Chemical Science, 2019):
Where two headings read alike, the source gives them in different places.

Biological target: T1, mouse GLP-1 receptor (Mus musculus, UniProt O35659)
T1 construct: βTC6 cells which express GLP-1R endogenously; host or cells: βTC6 cells
T1 sequence (O35659 22-463): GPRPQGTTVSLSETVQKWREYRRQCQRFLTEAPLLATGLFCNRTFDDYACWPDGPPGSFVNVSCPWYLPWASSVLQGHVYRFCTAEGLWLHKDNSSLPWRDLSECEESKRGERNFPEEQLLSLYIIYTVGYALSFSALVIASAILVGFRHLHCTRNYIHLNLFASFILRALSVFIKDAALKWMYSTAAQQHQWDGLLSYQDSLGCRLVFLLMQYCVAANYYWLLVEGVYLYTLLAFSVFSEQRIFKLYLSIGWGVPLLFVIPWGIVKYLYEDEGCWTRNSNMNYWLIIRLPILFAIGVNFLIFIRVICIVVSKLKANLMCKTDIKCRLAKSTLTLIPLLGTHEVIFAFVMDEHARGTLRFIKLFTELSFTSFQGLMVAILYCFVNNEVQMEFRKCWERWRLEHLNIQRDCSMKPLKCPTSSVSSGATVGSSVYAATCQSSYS
Experiment: cAMP production in βTC6 cells expressing GLP-1R endogenously (Method C2)
Type: cell-based
Conditions: for Potency (%), Table S1: from EC50 in βTC6 cAMP assay, footnote: compare to GLP-1-NH2 (2)

[1] = read-out: EC50 (GLP-1R potency), Table S1

Protocol:  HEK-293T cells (Multispan inc., lot#.DC1267-062017) were suspended in cell culture media
(DMEM 1X + GlutaMAX (Gibco 31966-021)) complemented with FBS 10% (Sigma Aldrich
 βTC6 cells were suspended in HBSS buffer (Invitrogen) complemented with 20 mM HEPES (pH
In vitro pharmacology on HEK-293T cells (EC50: Method C1)
cells (Multispan inc., lot#.DC1267-062017) was determined by measuring their effects on cAMP
production using the HTRF detection method (performed by UREkA SARL). The cells were distributed
in 384-well microplates at a density of 1.0x10^4 cells/well. Stock solutions of the test compounds or the
reference agonist were prepared at a concentration of 1 mM in DMSO. Then, compounds to be tested
were diluted in cell culture media and transferred to the plate containing the cells to reach final assay

Structure (SMILES) | Potency (%), Table S1 [%] | EC50 [1] [µM] | EC50 [µM]
CC[C@H](C)[C@H](NC(=O)[C@H](Cc1ccccc1)NC(=O)[C@H](CCC(=O)O)NC(=O)[C@H](CCCCN)NC(=O)[C@H](C)NC(=O)[C@H](C)NC(=O)[C@H](CCC(N)=O)NC(=O)CNC(=O)[C@H](CCC(=O)O)NC(=O)[C@H](CC(C)C)NC(=O)[C@H](Cc1ccc(O)cc1)NC(=O)[C@H](CO)NC(=O)[C@H](CO)NC(=O)[C@@H](NC(=O)[C@H](CC(=O)O)NC(=O)[C@H](CO)NC(=O)[C@@H](NC(=O)[C@H](Cc1ccccc1)NC(=O)[C@@H](NC(=O)CNC(=O)[C@H](CCC(=O)O)NC(=O)NC[C@H](Cc1c[nH]c2ccccc12)NC(=O)[C@@H](N)Cc1c[nH]cn1)[C@@H](C)O)[C@@H](C)O)C(C)C)C(=O)N[C@@H](C)C(=O)N[C@@H](Cc1c[nH]c2ccccc12)C(=O)N[C@@H](CC(C)C)C(=O)N[C@H](C(=O)N[C@@H](CCCCN)C(=O)NCC(=O)N[C@@H](CCCNC(=N)N)C(=O)NCC(N)=O)C(C)C [S11] | 5 |  | 0.0022
CC[C@H](C)[C@H](NC(=O)[C@H](Cc1ccccc1)NC(=O)[C@H](CCC(=O)O)NC(=O)[C@H](CCCCN)NC(=O)[C@H](C)NC(=O)[C@H](C)NC(=O)[C@H](CCC(N)=O)NC(=O)CNC(=O)[C@H](CCC(=O)O)NC(=O)[C@H](CC(C)C)NC(=O)[C@H](Cc1ccc(O)cc1)NC(=O)[C@H](CO)NC(=O)[C@H](CO)NC(=O)[C@@H](NC(=O)[C@H](CC(=O)O)NC(=O)[C@H](CO)NC(=O)[C@@H](NC(=O)[C@H](Cc1ccccc1)NC(=O)[C@@H](NC(=O)CNC(=O)[C@H](CCC(=O)O)NC(=O)NC[C@H](CO)NC(=O)[C@@H](N)Cc1c[nH]cn1)[C@@H](C)O)[C@@H](C)O)C(C)C)C(=O)N[C@@H](C)C(=O)N[C@@H](Cc1c[nH]c2ccccc12)C(=O)N[C@@H](CC(C)C)C(=O)N[C@H](C(=O)N[C@@H](CCCCN)C(=O)NCC(=O)N[C@@H](CCCNC(=N)N)C(=O)NCC(N)=O)C(C)C [S1] | 8 |  | 
CC[C@H](C)[C@H](NC(=O)[C@H](Cc1ccccc1)NC(=O)[C@H](CCC(=O)O)NC(=O)[C@H](CCCCN)NC(=O)[C@H](C)NC(=O)[C@H](C)NC(=O)[C@H](CCC(N)=O)NC(=O)CNC(=O)[C@H](CCC(=O)O)NC(=O)[C@H](CC(C)C)NC(=O)[C@H](Cc1ccc(O)cc1)NC(=O)[C@H](CO)NC(=O)[C@H](CO)NC(=O)[C@@H](NC(=O)[C@H](CC(=O)O)NC(=O)[C@H](CO)NC(=O)[C@@H](NC(=O)[C@H](Cc1ccccc1)NC(=O)[C@@H](NC(=O)CNC(=O)[C@H](CCC(=O)O)NC(=O)CNC(=O)[C@@H](N)Cc1c[nH]cn1)[C@@H](C)O)[C@@H](C)O)C(C)C)C(=O)N[C@@H](C)C(=O)N[C@@H](Cc1c[nH]c2ccccc12)C(=O)N[C@@H](CC(C)C)C(=O)N[C@H](C(=O)N[C@@H](CCCCN)C(=O)NCC(=O)N[C@@H](CCCNC(=N)N)C(=O)NCC(N)=O)C(C)C [S12, reference compound] | 42 |  | 
CC[C@H](C)[C@H](NC(=O)[C@H](Cc1ccccc1)NC(=O)[C@H](CCC(=O)O)NC(=O)[C@H](CCCCN)NC(=O)[C@H](C)NC(=O)[C@H](C)NC(=O)[C@H](CCC(N)=O)NC(=O)CNC(=O)[C@H](CCC(=O)O)NC(=O)[C@H](CC(C)C)NC(=O)[C@H](Cc1ccc(O)cc1)NC(=O)[C@H](CO)NC(=O)[C@H](CO)NC(=O)[C@@H](NC(=O)[C@H](CC(=O)O)NC(=O)[C@H](CO)NC(=O)[C@@H](NC(=O)[C@H](Cc1ccccc1)NC(=O)[C@@H](NC(=O)CNC(=O)[C@H](CCC(=O)O)NC(=O)NC[C@H](CCC(=O)O)NC(=O)[C@@H](N)Cc1c[nH]cn1)[C@@H](C)O)[C@@H](C)O)C(C)C)C(=O)N[C@@H](C)C(=O)N[C@@H](Cc1c[nH]c2ccccc12)C(=O)N[C@@H](CC(C)C)C(=O)N[C@H](C(=O)N[C@@H](CCCCN)C(=O)NCC(=O)N[C@@H](CCCNC(=N)N)C(=O)NCC(N)=O)C(C)C [S5] | < 0.01 | > 10 | 
CC[C@H](C)[C@H](NC(=O)[C@H](Cc1ccccc1)NC(=O)[C@H](CCC(=O)O)NC(=O)[C@H](CCCCN)NC(=O)[C@H](C)NC(=O)[C@H](C)NC(=O)[C@H](CCC(N)=O)NC(=O)CNC(=O)[C@H](CCC(=O)O)NC(=O)[C@H](CC(C)C)NC(=O)[C@H](Cc1ccc(O)cc1)NC(=O)[C@H](CO)NC(=O)[C@H](CO)NC(=O)[C@@H](NC(=O)[C@H](CC(=O)O)NC(=O)[C@H](CO)NC(=O)[C@@H](NC(=O)[C@H](Cc1ccccc1)NC(=O)[C@@H](NC(=O)CNC(=O)[C@H](CCC(=O)O)NC(=O)NC[C@H](CCC(N)=O)NC(=O)[C@@H](N)Cc1c[nH]cn1)[C@@H](C)O)[C@@H](C)O)C(C)C)C(=O)N[C@@H](C)C(=O)N[C@@H](Cc1c[nH]c2ccccc12)C(=O)N[C@@H](CC(C)C)C(=O)N[C@H](C(=O)N[C@@H](CCCCN)C(=O)NCC(=O)N[C@@H](CCCNC(=N)N)C(=O)NCC(N)=O)C(C)C [S4] | < 0.01 | > 10 | 
CC[C@H](C)[C@H](NC(=O)[C@H](Cc1ccccc1)NC(=O)[C@H](CCC(=O)O)NC(=O)[C@H](CCCCN)NC(=O)[C@H](C)NC(=O)[C@H](C)NC(=O)[C@H](CCC(N)=O)NC(=O)CNC(=O)[C@H](CCC(=O)O)NC(=O)[C@H](CC(C)C)NC(=O)[C@H](Cc1ccc(O)cc1)NC(=O)[C@H](CO)NC(=O)[C@H](CO)NC(=O)[C@@H](NC(=O)[C@H](CC(=O)O)NC(=O)[C@H](CO)NC(=O)[C@@H](NC(=O)[C@H](Cc1ccccc1)NC(=O)[C@@H](NC(=O)CNC(=O)[C@H](CCC(=O)O)NC(=O)NC[C@H](CCCCN)NC(=O)[C@@H](N)Cc1c[nH]cn1)[C@@H](C)O)[C@@H](C)O)C(C)C)C(=O)N[C@@H](C)C(=O)N[C@@H](Cc1c[nH]c2ccccc12)C(=O)N[C@@H](CC(C)C)C(=O)N[C@H](C(=O)N[C@@H](CCCCN)C(=O)NCC(=O)N[C@@H](CCCNC(=N)N)C(=O)NCC(N)=O)C(C)C [S8] | < 0.01 | > 10 | 
CC[C@H](C)[C@H](NC(=O)[C@H](Cc1ccccc1)NC(=O)[C@H](CCC(=O)O)NC(=O)[C@H](CCCCN)NC(=O)[C@H](C)NC(=O)[C@H](C)NC(=O)[C@H](CCC(N)=O)NC(=O)CNC(=O)[C@H](CCC(=O)O)NC(=O)[C@H](CC(C)C)NC(=O)[C@H](Cc1ccc(O)cc1)NC(=O)[C@H](CO)NC(=O)[C@H](CO)NC(=O)[C@@H](NC(=O)[C@H](CC(=O)O)NC(=O)[C@H](CO)NC(=O)[C@@H](NC(=O)[C@H](Cc1ccccc1)NC(=O)[C@@H](NC(=O)CNC(=O)[C@H](CCC(=O)O)NC(=O)NC[C@H](CC(C)C)NC(=O)[C@@H](N)Cc1c[nH]cn1)[C@@H](C)O)[C@@H](C)O)C(C)C)C(=O)N[C@@H](C)C(=O)N[C@@H](Cc1c[nH]c2ccccc12)C(=O)N[C@@H](CC(C)C)C(=O)N[C@H](C(=O)N[C@@H](CCCCN)C(=O)NCC(=O)N[C@@H](CCCNC(=N)N)C(=O)NCC(N)=O)C(C)C [S7] | < 0.01 | > 10 | 

Further lines, with some results ahead:

Potency (%), Table S1 [%] | EC50 [1] [µM] | Structure (SMILES) | EC50 [µM]
< 0.01 | > 10 | CC[C@H](C)[C@H](NC(=O)[C@H](Cc1ccccc1)NC(=O)[C@H](CCC(=O)O)NC(=O)[C@H](CCCCN)NC(=O)[C@H](C)NC(=O)[C@H](C)NC(=O)[C@H](CCC(N)=O)NC(=O)CNC(=O)[C@H](CCC(=O)O)NC(=O)[C@H](CC(C)C)NC(=O)[C@H](Cc1ccc(O)cc1)NC(=O)[C@H](CO)NC(=O)[C@H](CO)NC(=O)[C@@H](NC(=O)[C@H](CC(=O)O)NC(=O)[C@H](CO)NC(=O)[C@@H](NC(=O)[C@H](Cc1ccccc1)NC(=O)[C@@H](NC(=O)CNC(=O)[C@H](CCC(=O)O)NC(=O)NC[C@@H](NC(=O)[C@@H](N)Cc1c[nH]cn1)[C@@H](C)CC)[C@@H](C)O)[C@@H](C)O)C(C)C)C(=O)N[C@@H](C)C(=O)N[C@@H](Cc1c[nH]c2ccccc12)C(=O)N[C@@H](CC(C)C)C(=O)N[C@H](C(=O)N[C@@H](CCCCN)C(=O)NCC(=O)N[C@@H](CCCNC(=N)N)C(=O)NCC(N)=O)C(C)C [S6] | 
21 | 0.0005 | CC[C@H](C)[C@H](NC(=O)[C@H](Cc1ccccc1)NC(=O)[C@H](CCC(=O)O)NC(=O)[C@H](CCCCN)NC(=O)[C@H](C)NC(=O)[C@H](C)NC(=O)[C@H](CCC(N)=O)NC(=O)CNC(=O)[C@H](CCC(=O)O)NC(=O)[C@H](CC(C)C)NC(=O)[C@H](Cc1ccc(O)cc1)NC(=O)[C@H](CO)NC(=O)[C@H](CO)NC(=O)[C@@H](NC(=O)[C@H](CC(=O)O)NC(=O)[C@H](CO)NC(=O)[C@@H](NC(=O)[C@H](Cc1ccccc1)NC(=O)[C@@H](NC(=O)CNC(=O)[C@H](CCC(=O)O)NC(=O)NC[C@H](Cc1ccccc1)NC(=O)[C@@H](N)Cc1c[nH]cn1)[C@@H](C)O)[C@@H](C)O)C(C)C)C(=O)N[C@@H](C)C(=O)N[C@@H](Cc1c[nH]c2ccccc12)C(=O)N[C@@H](CC(C)C)C(=O)N[C@H](C(=O)N[C@@H](CCCCN)C(=O)NCC(=O)N[C@@H](CCCNC(=N)N)C(=O)NCC(N)=O)C(C)C [S9] | 
< 0.01 | > 10 | CC[C@H](C)[C@H](NC(=O)[C@H](Cc1ccccc1)NC(=O)[C@H](CCC(=O)O)NC(=O)[C@H](CCCCN)NC(=O)[C@H](C)NC(=O)[C@H](C)NC(=O)[C@H](CCC(N)=O)NC(=O)CNC(=O)[C@H](CCC(=O)O)NC(=O)[C@H](CC(C)C)NC(=O)[C@H](Cc1ccc(O)cc1)NC(=O)[C@H](CO)NC(=O)[C@H](CO)NC(=O)[C@@H](NC(=O)[C@H](CC(=O)O)NC(=O)[C@H](CO)NC(=O)[C@@H](NC(=O)[C@H](Cc1ccccc1)NC(=O)[C@@H](NC(=O)CNC(=O)[C@H](CCC(=O)O)NC(=O)NC[C@H](CCCNC(=N)N)NC(=O)[C@@H](N)Cc1c[nH]cn1)[C@@H](C)O)[C@@H](C)O)C(C)C)C(=O)N[C@@H](C)C(=O)N[C@@H](Cc1c[nH]c2ccccc12)C(=O)N[C@@H](CC(C)C)C(=O)N[C@H](C(=O)N[C@@H](CCCCN)C(=O)NCC(=O)N[C@@H](CCCNC(=N)N)C(=O)NCC(N)=O)C(C)C [S2] | 
